pIC50: −log10 of the molar value.
Columns and labels:
Format in all cases: cell-based
[1] = test system: H1975 (KRAS wild type human lung adenocarcinoma cell line); experiment: KRAS 3D-Cell Proliferation Assay, H1975 (Example 503); conditions: Homo sapiens, NCI-H1975, 168 h, H1975 3D culture, 7 days, CellTiter-Glo 3D; read-out: Prolif H1975 3D ATP IC50
Summary of the method: (§1)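 IC50 values derive from 4-parameter Hill fits of normalized luminescence, where DMSO sets 0% and 1 μM staurosporine 100% inhibition. 3D cultures in RPMI-1640 with 10% fetal bovine serum were exposed to compound for 7 days before CellTiter-Glo 3D lysis.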

[2] = test system: AsPC-1 (homozygous mutant KRAS G12D human pancreatic cell line); experiment: KRAS 3D-Cell Proliferation Assay, AsPC-1 (Example 503); conditions: Homo sapiens, ASPC1, 168 h, AsPC-1 3D culture, 7 days, CellTiter-Glo 3D; read-out: Prolif AsPC-1 3D ATP IC50
Summary of the method: as §1

[3] = test system: HPAC (homozygous mutant KRAS G12D human pancreatic cell line); experiment: KRAS 3D-Cell Proliferation Assay, HPAC (Example 503); conditions: Homo sapiens, HPAC, 168 h, HPAC 3D culture, 7 days, CellTiter-Glo 3D; read-out: Prolif HPAC 3D ATP IC50
Summary of the method: as §1

| SMILES | pIC50 [1] | pIC50 [2] | pIC50 [3] |
| --- | --- | --- | --- |
| Cc1c(F)c(N)cc(-c2nc3c4c(nc(OC[C@@]56CCCN5C[C@H](F)C6)nc4c2F)N2C[C@H]4CC[C@H](N4)[C@H]2[C@H](C(F)(F)F)O3)c1C(F)(F)F [Compound 247, 2-Fluoro-5-((5R,5aS,6S,9R)-1-fluoro-12-(((2R,7aS)-2-fluorotetrahydro-1H-pyrrolizin-7a(5H)-yl)methoxy)-5-(trifluoromethyl)-5a,6,7,8,9,10-hexahydro-5H-4-oxa-3,10a,11,13,14-pentaaza-6,9-methanonaphtho[1,8-ab]heptalene-2-yl)-3-methyl-4-(trifluoromethyl)aniline] | 6.19 | 9.00 | 8.79 |
| Cc1cc(N)c(F)c(-c2nc3c4c(nc(OCC5(CN6CCOCC6)CC5)nc4c2F)N2C[C@H]4CC[C@H](N4)[C@H]2[C@H](C)O3)c1C(F)(F)F [Compound 226, 2-Fluoro-3-((5S,5aS,6S,9R)-1-fluoro-5-methyl-12-((1-(morpholinomethyl)cyclopropyl)methoxy)-5a,6,7,8,9,10-hexahydro-5H-4-oxa-3,10a,11,13,14-pentaaza-6,9-methanonaphtho[1,8-ab]heptalene-2-yl)-5-methyl-4-(trifluoromethyl)aniline] | 6.25 | 8.92 | 9.07 |
| Cc1c(F)c(N)cc(-c2nc3c4c(nc(OC[C@@H]5CC[C@H]6COCCN65)nc4c2F)N2C[C@H]4CC[C@H](N4)[C@H]2[C@H](C(F)(F)F)O3)c1C(F)(F)F [Compound 245, 2-Fluoro-5-((5R,5aS,6S,9R)-1-fluoro-12-(((6S,8aS)-hexahydro-1H-pyrrolo[2,1-c][1,4]oxazin-6-yl)methoxy)-5-(trifluoromethyl)-5a,6,7,8,9,10-hexahydro-5H-4-oxa-3,10a,11,13,14-pentaaza-6,9-methanonaphtho[1,8-ab]heptalene-2-yl)-3-methyl-4-(trifluoromethyl)aniline] | 6.13 | 8.44 | 8.38 |
| Cc1nc(N)cc(-c2nc3c4c(nc(OC[C@@]56CCCN5CC5(CC5(F)F)C6)nc4c2F)N2C[C@H]4CC[C@H](N4)[C@H]2[C@H](C)O3)c1C(F)(F)F (stereo partly drawn) [Compound 216, 4-((5S,5aS,6S,9R)-12-(((7a′S)-2,2-Difluorodihydro-1′,3′H-spiro[cyclopropane-1,2′-pyrrolizin]-7a′(5′H)-yl)methoxy)-1-fluoro-5-methyl-5a,6,7,8,9,10-hexahydro-5H-4-oxa-3,10a,11,13,14-pentaaza[6,9]methanonaphtho[1,8-ab]heptalene-2-yl)-6-methyl-5-(trifluoromethyl)pyridin-2-amine] | 6.79 | 9.22 | 9.05 |
| Cc1nc(N)c(F)c(-c2nc3c4c(nc(OC[C@@]56CCCN5C[C@H](F)C6)nc4c2F)N2C[C@H]4CC[C@H](N4)[C@H]2[C@H](C)O3)c1C(F)(F)F [Compound 194, 3-Fluoro-4-((5S,5aS,6S,9R)-1-fluoro-12-(((2R,7aS)-2-fluorotetrahydro-1H-pyrrolizin-7a(5H)-yl)methoxy)-5-methyl-5a,6,7,8,9,10-hexahydro-5H-4-oxa-3,10a,11,13,14-pentaaza-6,9-methanonaphtho[1,8-ab]heptalen-2-yl)-6-methyl-5-(trifluoromethyl)pyridin-2-amine] | 6.04 | 8.57 | 8.30 |
| Cc1nc(N)cc(-c2nc3c4c(nc(OC[C@@]56CCCN5CC5(CC5(F)F)C6)nc4c2F)N2C[C@H]4CC[C@H](N4)[C@H]2[C@H](C(F)(F)F)O3)c1C(F)(F)F (stereo partly drawn) [Compound 254, 4-((5R,5aS,6S,9R)-12-(((7a′S)-2,2-Difluorodihydro-1′H,3′H-spiro[cyclopropane-1,2′-pyrrolizin]-7a′(5′H)-yl)methoxy)-1-fluoro-5-(trifluoromethyl)-5a,6,7,8,9,10-hexahydro-5H-4-oxa-3,10a,11,13,14-pentaaza[6,9]methanonaphtho[1,8-ab]heptalene-2-yl)-6-methyl-5-(trifluoromethyl)pyridin-2-amine] | 6.86 | 8.60 | 8.73 |
| Cc1c(F)c(N)c(F)c(-c2nc3c4c(nc(OC[C@@]56CCCN5C[C@H](F)C6)nc4c2F)N2C[C@H]4CC[C@H](N4)[C@H]2[C@H](C)O3)c1C(F)(F)F [Compound 91, 2,6-Difluoro-3-((5S,5aS,6S,9R)-1-fluoro-12-(((2R,7aS)-2-fluorotetrahydro-1H-pyrrolizin-7a(5H)-yl)methoxy)-5-methyl-5a,6,7,8,9,10-hexahydro-5H-4-oxa-3,10a,11,13,14-pentaaza-6,9-methanonaphtho[1,8-ab]heptalen-2-yl)-5-methyl-4-(trifluoromethyl)aniline] | 6.02 | 8.89 | 8.90 |
| Cc1c(F)c(N)c(F)c(-c2nc3c4c(nc(OC[C@@H]5CC[C@H]6COCCN65)nc4c2F)N2C[C@H]4CC[C@H](N4)[C@H]2[C@H](C)O3)c1C(F)(F)F [Compound 96, 2,6-Difluoro-3-((5S,5aS,6S,9R)-1-fluoro-12-(((6S,8aS)-hexahydro-1H-pyrrolo[2,1-c][1,4]oxazin-6-yl)methoxy)-5-methyl-5a,6,7,8,9,10-hexahydro-5H-4-oxa-3,10a,11,13,14-pentaaza-6,9-methanonaphtho[1,8-ab]heptalen-2-yl)-5-methyl-4-(trifluoromethyl)aniline] | 6.01 | 8.24 | 8.43 |
| Cc1c(F)c(N)cc(-c2nc3c4c(nc(OCC5(CN6C[C@H]7C[C@@H]6CO7)CC5)nc4c2F)N2C[C@H]4CC[C@H](N4)[C@H]2[C@H](C)O3)c1C(F)(F)F [Compound 170, 5-((5S,5aS,6S,9R)-12-((1-(((1R,4R)-2-Oxa-5-azabicyclo[2.2.1]heptan-5-yl)methyl)cyclopropyl)methoxy)-1-fluoro-5-methyl-5a,6,7,8,9,10-hexahydro-5H-4-oxa-3,10a,11,13,14-pentaaza-6,9-methanonaphtho[1,8-ab]heptalene-2-yl)-2-fluoro-3-methyl-4-(trifluoromethyl)aniline] | 6.30 | 9.10 | 9.04 |
| C[C@@H]1Oc2nc(-c3cc(N)cc(F)c3C(F)(F)F)c(F)c3nc(OC[C@@H]4CC[C@H]5COCCN54)nc(c23)N2C[C@H]3CC[C@H](N3)[C@@H]12 [Compound 77, 3-Fluoro-5-((5S,5aS,6S,9R)-1-fluoro-12-(((6S,8aS)-hexahydro-1H-pyrrolo[2,1-c][1,4]oxazin-6-yl)methoxy)-5-methyl-5a,6,7,8,9,10-hexahydro-5H-4-oxa-3,10a,11,13,14-pentaaza-6,9-methanonaphtho[1,8-ab]heptalen-2-yl)-4-(trifluoromethyl)aniline] | 6.45 | 7.92 | 8.55 |
| Cc1c(F)c(N)cc(-c2nc3c4c(nc(OCC5(CN6CCOC[C@H]6C)CC5)nc4c2F)N2C[C@H]4CC[C@H](N4)[C@H]2[C@H](C)O3)c1C(F)(F)F [Compound 129, 2-Fluoro-5-((5S,5aS,6S,9R)-1-fluoro-5-methyl-12-((1-(((R)-3-methylmorpholino)methyl)cyclopropyl)methoxy)-5a,6,7,8,9,10-hexahydro-5H-4-oxa-3,10a,11,13,14-pentaaza-6,9-methanonaphtho[1,8-ab]heptalen-2-yl)-3-methyl-4-(trifluoromethyl)aniline] | 5.94 | 9.00 | 8.96 |

— US12338256B2, “Aza-tetracyclic oxazepine compounds and uses thereof” (Genentech, Inc., priority 2022, dated 2025)
